Results on 100 compounds are retold here after ChEMBL document CHEMBL3507680, “University of Dundee, Gates Library screen for HepG2 cell viability”.

The series can be described thus: Human HepG2 cell viability assay in 384 well format. The format is toxicity, cell-based. Set-up: dose 125 nL, time 70.5 hour; cytotoxicity at 70.5 h: concentration not given beside the values. The settings on record: HepG2 cells, read-out: Inhibition.

Regarding `CCOc1nn(CC)cc1-c1nnc(SCc2cccnc2)n1CC`, the cytotoxicity at 70.5 h is -7.15%.

In the case of `Cc1cc(CN2CCC(CNS(=O)(=O)c3c(C)noc3C)CC2)c(C)o1`, the cytotoxicity at 70.5 h turned out to be 2.34%.

Consider `Cc1cc(CN2CCC(CNS(=O)(=O)c3ccc(Br)s3)CC2)c(C)o1`, for which the cytotoxicity at 70.5 h was -7.28%.

Take `CCOc1ccc(S(=O)(=O)NCCc2ccc(N(C)C)cc2)cc1F`: the cytotoxicity at 70.5 h is -1.54%.

For `O=C(CCc1ccccc1)NCC1CCN(Cc2cccs2)CC1`, the cytotoxicity at 70.5 h was -8.06%.

For `COCC(=O)NCC1CCN(Cc2ccsc2)CC1`, the cytotoxicity at 70.5 h was determined as 33.7%.

For the compound `O=C(COc1ccccc1)NCC1CCN(Cc2ccsc2)CC1`, the cytotoxicity at 70.5 h is -4.27%.

Consider `O=C(CCSc1ccccc1)NCC1CCN(Cc2ccsc2)CC1`, for which the cytotoxicity at 70.5 h worked out at 4.4%.

As for `CCCc1nnsc1C(=O)NCC1CCN(c2ncccn2)CC1`, the cytotoxicity at 70.5 h was -13.9%.

For `O=C(NCCS(=O)(=O)N1CCN(c2ncccn2)CC1)C1CCCC1`, the cytotoxicity at 70.5 h is -5.6%.

`O=C(NCCS(=O)(=O)N1CCN(c2ncccn2)CC1)c1ccccc1`: the cytotoxicity at 70.5 h is -7.9%.

As for `CCCS(=O)(=O)N1CCN(c2ccc3nnc(CC)n3n2)CC1`, the cytotoxicity at 70.5 h was -12.7%.

As for `COc1ccc(C(=O)NCC(c2cccn2C)N2CCCC2)cc1OC` (stereo not given), the cytotoxicity at 70.5 h is -4.98%.

With `COc1ccccc1C(=O)NCC(c1cccn1C)N1CCOCC1` (stereo not given), the cytotoxicity at 70.5 h is -6.22%.

As for `Cc1ccc(C)c(C(=O)NCC(c2cccn2C)N2CCCCCC2)c1` (stereo not given), the cytotoxicity at 70.5 h was -1.53%.

Consider `CC(=O)Nc1cc(C2CC2)nn1-c1nc(C)c(C)c(=O)[nH]1`, for which the cytotoxicity at 70.5 h was found to be 38.4%.

`CCc1c(C)nc(-n2nc(C3CC3)cc2NC(C)=O)[nH]c1=O`: the cytotoxicity at 70.5 h is 1.53%.

Turning to `Cn1nc2c(c1NC(=O)c1ccc(Cl)s1)CCC2`, the cytotoxicity at 70.5 h was -8.38%.

Regarding `Cc1cc(=O)[nH]c(-n2nc(C)c(CCC(=O)NCc3ccco3)c2C)n1`, the cytotoxicity at 70.5 h was 31.1%.

For `Cc1cc(=O)[nH]c(-n2nc(C)c(CCC(=O)Nc3nc(C)cs3)c2C)n1`, the cytotoxicity at 70.5 h is -3.34%.

Consider `COc1cccc2c1OCC(C(=O)NCc1c(C)noc1C)C2` (stereo not given), for which the cytotoxicity at 70.5 h is -7.18%.

As for `O[C@]12CCNC[C@H]1CN(c1ccnc3ccccc13)CC2`, the cytotoxicity at 70.5 h came to 22.4%.

Consider `CCn1c(N)nc2cc(C(=O)N3CCC(N4CCCC4)CC3)cnc21`, for which the cytotoxicity at 70.5 h is -5.99%.

As to `CC(C)c1cc(C(=O)N2CCN(CC3CC3)[C@@H]3CS(=O)(=O)C[C@@H]32)on1`, the cytotoxicity at 70.5 h is -0.581%.

For the compound `Cn1ccnc1CN1CCCC(CO)(CCc2ccccc2)C1` (stereo not given), the cytotoxicity at 70.5 h was -8.1%.

In the case of `CCC(NC(=O)c1coc(COc2cccc(F)c2F)n1)C(=O)NC` (stereo not given), the cytotoxicity at 70.5 h was -9.68%.

With `CC(=O)NCCNc1nccc(CCC(F)(F)F)n1`, the cytotoxicity at 70.5 h is -10.3%.

Turning to `CCCC1(CO)CCCN(C(=O)CNC(C)=O)C1` (stereo not given), the cytotoxicity at 70.5 h is -10.4%.

As to `Cc1nnsc1CN(C)C(=O)CN1CC2(CCNCC2)OC1=O`, the cytotoxicity at 70.5 h is -2.76%.

As to `CCSCC(C)NCc1ccccc1-n1ccnc1` (stereo not given), the cytotoxicity at 70.5 h is -2.53%.

In the case of `CN1CCC(c2nnc(CN3CCCC3)n2C2CC2)CC1`, the cytotoxicity at 70.5 h was -6.39%.

As for `COc1ccc(C)cc1S(=O)(=O)N[C@H]1CN(C(C)=O)C[C@@H]1C1CC1`, the cytotoxicity at 70.5 h is -7.75%.

On to `Cc1cc(N2CCC(O)(CN(C)C)C2)c2cc3c(cc2n1)OCO3` (stereo not given), for which the cytotoxicity at 70.5 h amounted to 44.8%.

As to `Cc1ccc(OC2(C(=O)O)CCN(C(=O)CCc3ccco3)CC2)cc1`, the cytotoxicity at 70.5 h was -3.25%.

As for `COCc1cc(NCCc2ccc(S(N)(=O)=O)cc2)n2nccc2n1`, the cytotoxicity at 70.5 h is -20.7%.

In the case of `CCc1cnc(C)nc1N1CCN(C(N)=O)CC1`, the cytotoxicity at 70.5 h was -12.6%.

For the compound `Cc1ccc2nc(CNCCCN3CCCC3=O)cc(O)c2c1`, the cytotoxicity at 70.5 h is 14.6%.

Regarding `Cc1ccc(Cl)c(C)c1NC(=O)N1CCCN(Cc2ccccn2)CC1`, the cytotoxicity at 70.5 h was 2.01%.

Consider `COc1ccc(Cl)cc1NCCC(=O)NCCNc1cnccn1`, for which the cytotoxicity at 70.5 h came out at 3.74%.

In the case of `CC(C)C(=O)NS(=O)(=O)c1ccc(C#N)cc1C(F)(F)F`, the cytotoxicity at 70.5 h is -2.54%.

On to `COc1cccc2cc(CNCc3ccc(N4CCCC4)nc3)oc12`, for which the cytotoxicity at 70.5 h amounted to 16%.

In the case of `Cc1noc(C(C)N2CCN(CCN3CCCC3=O)CC2)n1` (stereo not given), the cytotoxicity at 70.5 h is -4.25%.

As to `Cc1ccc(N2CCCN(C(=O)CC3C=CCC3)CC2)nn1` (stereo not given), the cytotoxicity at 70.5 h was -4.92%.

As for `Cc1nc(N2CCN(C(=O)c3ccccc3)CC2)c2cnn(C)c2n1`, the cytotoxicity at 70.5 h is -0.834%.

For `CC(C)C(C(=O)N1CCCN(c2cccnn2)CC1)n1cncn1` (stereo not given), the cytotoxicity at 70.5 h worked out at 4.13%.

Consider `Cc1noc(CN(C)Cc2ccc3c(c2)OCO3)n1`, for which the cytotoxicity at 70.5 h was found to be 12.4%.

Regarding `CCNC(=O)NC(=O)CNC(C)(C)c1ccc2c(c1)OCCO2`, the cytotoxicity at 70.5 h was -5.69%.

`CC(C)(NCC(=O)NCC1CC1)c1ccc2c(c1)OCCO2`: the cytotoxicity at 70.5 h came to 15.5%.

Take `Cc1noc(C)c1CN1CCC(N(C)Cc2nnc(C3CC3)n2C)C1` (stereo not given): the cytotoxicity at 70.5 h is -2.84%.

Take `Cc1nnc(C(C)N2CCCN(Cc3ccc(C#N)cc3)CC2)o1` (stereo not given): the cytotoxicity at 70.5 h was -2.73%.

For the compound `Cc1cnn(CC2CCCN2Cc2nnc(C)o2)c1` (stereo not given), the cytotoxicity at 70.5 h was -2.26%.

As for `COc1ccccc1N1CCC(CNS(=O)(=O)c2cccc(C#N)c2)C1` (stereo not given), the cytotoxicity at 70.5 h is 22.7%.

Take `Cc1nnc(C(C)N2CCN(Cc3ccc(C(F)(F)F)cc3)CC2)o1` (stereo not given): the cytotoxicity at 70.5 h is -1.82%.

As for `c1ccc(Cc2nnc(CN3CCCCC3Cn3cncn3)o2)cc1` (stereo not given), the cytotoxicity at 70.5 h worked out at 0.659%.

As for `CCc1noc(CN(Cc2ccc3c(c2)OCO3)C2CCCC2)n1`, the cytotoxicity at 70.5 h is -10.9%.

In the case of `Cc1cccc(-c2noc(CN3CCOCC3C)n2)c1` (stereo not given), the cytotoxicity at 70.5 h was -5.27%.

`CC(C)c1nnc(CN2CCCC(c3cc(C(N)=O)[nH]n3)C2)o1` (stereo not given): the cytotoxicity at 70.5 h worked out at 26.9%.

As to `CC(C(=O)Nc1ccc(N2CCOCC2)nc1)n1cncn1` (stereo not given), the cytotoxicity at 70.5 h came to 23.7%.

With `Cc1nc(C)n(CC2CCCN(Cc3ccc(F)cc3C#N)C2)n1` (stereo not given), the cytotoxicity at 70.5 h was -1.49%.

As for `Cc1cc(C)n(C2CCCN(C(=O)CCc3nccs3)C2)n1` (stereo not given), the cytotoxicity at 70.5 h amounted to 28.2%.

`CC1COCCN1Cc1nc(-c2ccc(Br)s2)no1` (stereo not given): the cytotoxicity at 70.5 h was 1.52%.

Consider `Cc1nn(C)c(Cl)c1C1CCCN1C(=O)c1cc(C2CC2)on1` (stereo not given), for which the cytotoxicity at 70.5 h is 3.63%.

As to `COc1ccc(CCNC(C)c2ccc3[nH]c(=O)[nH]c3c2)cc1OC` (stereo not given), the cytotoxicity at 70.5 h was 3.32%.

Turning to `Cc1ncc(CN2CCCC(c3cc(C(N)=O)[nH]n3)C2)s1` (stereo not given), the cytotoxicity at 70.5 h is 57.9%.

For the compound `c1cnnc(N2CCCC(NCc3nc(-c4ccco4)no3)C2)c1` (stereo not given), the cytotoxicity at 70.5 h was determined as 46.2%.

As to `CSc1ccc(C(=O)N2CCOCC2c2c(C)n[nH]c2C)o1` (stereo not given), the cytotoxicity at 70.5 h worked out at 18.3%.

Take `Cc1n[nH]c(C)c1C1COCCN1C(=O)c1n[nH]c2ccccc12` (stereo not given): the cytotoxicity at 70.5 h was 12.3%.

Turning to `Cc1ccoc1-c1nnc(CNC2CCCN(c3cccnn3)C2)o1` (stereo not given), the cytotoxicity at 70.5 h was 12.6%.

`CC(C)c1nnc2n1CCN(Cc1nc(-c3ccoc3)no1)C2`: the cytotoxicity at 70.5 h came out at 16.7%.

`Cc1ncsc1C(=O)N(C)Cc1cccnc1`: the cytotoxicity at 70.5 h was -9.5%.

Turning to `Cc1ccccc1C1(C(=O)NCCN2CCOCC2)CCOCC1`, the cytotoxicity at 70.5 h was -9.98%.

For `Cc1cc(CNc2cccc(Cl)c2C)no1`, the cytotoxicity at 70.5 h is -17.1%.

Take `CCOc1ncccc1CNC(=O)c1cccc(C)n1`: the cytotoxicity at 70.5 h is -17.3%.

Consider `Cc1n[nH]c(C)c1C1COCCN1C(=O)c1cc(F)ccc1F` (stereo not given), for which the cytotoxicity at 70.5 h is -8.76%.

Take `Cc1n[nH]c(C)c1C1COCCN1C(=O)c1cccc(F)c1F` (stereo not given): the cytotoxicity at 70.5 h is -15.7%.

In the case of `CN(C)c1cc(CNC(=O)Nc2ccc(C#N)cc2)ccn1`, the cytotoxicity at 70.5 h was -11.3%.

As to `NC(=O)C1CCN(C(=O)NCCOc2ccc3c(c2)CCC3)CC1`, the cytotoxicity at 70.5 h was -6.38%.

With `CC(=O)NCC1CCN(C(=O)NCCOc2ccc3c(c2)CCC3)CC1`, the cytotoxicity at 70.5 h was -11.5%.

As for `COc1ccc(Cl)cc1NCc1cc(C)on1`, the cytotoxicity at 70.5 h is -3.4%.

Consider `COc1ccc(OCCNC(=O)N2CCS(=O)(=O)CC2)cc1`, for which the cytotoxicity at 70.5 h is -7.97%.

Consider `c1ccc(-n2cc(CNC3CCc4ncnn4C3)nn2)cc1` (stereo not given), for which the cytotoxicity at 70.5 h was -7.65%.

For `O=C(O)c1cc(S(=O)(=O)N2CCOc3ccccc32)ccc1Br`, the cytotoxicity at 70.5 h is -2.35%.

With `Cc1ccc(NC(=O)C2CSCN2C(=O)c2cnccn2)cc1C` (stereo not given), the cytotoxicity at 70.5 h is -9.37%.

Consider `CSCCc1ccc(NC(=O)NCc2ccnc(N(C)C)c2)cc1`, for which the cytotoxicity at 70.5 h was 16.5%.

On to `Cc1oc(-c2ccco2)nc1CNC1CCCN(c2cccnn2)C1` (stereo not given), for which the cytotoxicity at 70.5 h was -9.89%.

As to `CC(=O)N1CCCN(C(=O)NCCOc2ccc3c(c2)CCC3)CC1`, the cytotoxicity at 70.5 h is -4.61%.

As for `Cc1noc(C)c1S(=O)(=O)NC(=O)COc1ccc2c(c1)CCC2`, the cytotoxicity at 70.5 h was -13.5%.

Regarding `CN(C)c1cc(CNc2ccc(S(=O)(=O)C(C)(C)C)nc2)ccn1`, the cytotoxicity at 70.5 h stood at 8.83%.

In the case of `Cc1cccc(C)c1OCC(=O)NS(=O)(=O)c1c(C)noc1C`, the cytotoxicity at 70.5 h was -14.4%.

In the case of `Cc1n[nH]c(C)c1C1COCCN1C(=O)c1ccc2c(c1)CCO2` (stereo not given), the cytotoxicity at 70.5 h is -8%.

Turning to `Cc1nn(C)c(N(C)C)c1CNCCCNS(C)(=O)=O`, the cytotoxicity at 70.5 h came out at 4.14%.

As for `COCc1nc(C(=O)NS(=O)(=O)c2cc(Br)ccc2C)cs1`, the cytotoxicity at 70.5 h is 1.93%.

In the case of `O=C(c1cccc(N2CCCC2=O)c1)N1CCCC(n2cccn2)C1` (stereo not given), the cytotoxicity at 70.5 h was -6.59%.

`O=C(c1cccc(Cn2ccnc2)c1)N1CCCC(n2cccn2)C1` (stereo not given): the cytotoxicity at 70.5 h was determined as 5.77%.

Take `CCOc1ccc(C(=O)N2CCN(c3nccn3C)CC2)cc1`: the cytotoxicity at 70.5 h is -0.809%.

`Cn1ccnc1N1CCN(C(=O)Cc2ccccc2)CC1`: the cytotoxicity at 70.5 h is -8.11%.

On to `COc1ccc(CC(=O)N2CCN(c3nccn3C)CC2)cc1`, for which the cytotoxicity at 70.5 h was -1.27%.

As for `Cc1cccc(CC(=O)N2CCN(c3nccn3C)CC2)c1`, the cytotoxicity at 70.5 h is -1.55%.

On to `CCOc1ccc(CC(=O)N2CCN(c3nccn3CC)CC2)cc1`, for which the cytotoxicity at 70.5 h was -1.22%.

`COc1c(CNCc2cccc(Cn3ccnc3C)c2)c(C)nn1C`: the cytotoxicity at 70.5 h was found to be 13.2%.
